One substance from US6713459B1, “Methods for the prophylactic and therapeutic treatment of cardiac tissue damage” (East Tennessee State University, priority 2000, dated 2004) can be followed below.

Common to all, as to assay type: in vivo, Sprague-Dawley rats
One test deals with IκBα. Briefly: Western blot of cytoplasmic IκBα in rat myocardium after I/R. Conditions: 40 mg/Kg one hr before 15 min ischemia and 30 min reperfusion. Here is the method:
FIG. 15 is a graphic representation of effect of glucan on loss of IκBα from rat myocardial cytoplasm following I/R. Rats were pretreated with glucan (40 mg/Kg) for one hr. before being subjected to 15 min. of ischemia and 30 min. of reperfusion. Cytoplasmic proteins were isolated and levels of IκBα protein determined by Western blot analysis. Results were expressed as means±SEM for 5 hearts at each time point. P<0.05 as compared to normal (N).
(§1) Ischemia/reperfusion protocols were performed using Sprague-Dawley rats (Harlan Sprague-Dawley, Indianapolis, Indiana). Left anterior descending (LAD) coronary artery occlusion was performed by tying off the LAD artery near its origin using a suture. Glucan phosphate was employed in the ischemia reperfusion (I/R) studies.
(§2) To investigate NF-κB activation in vivo, rat hearts were subjected to various periods of ischemia or ischemia and reperfusion (I/R). For example, levels of IκBα and phosphorylated IκBα proteins in cell cytoplasm following ischemia were evaluated by Western blot with anti-IκBα or antibody specific for the phosphorylated […] (FIG. 9a). NF-κB binding activity in the nucleus following onset of ischemia was analyzed by electrophoretic mobility shift assay (EMSA) (FIG. 10a). […]
For orientation: In western blotting, separated proteins are transferred to a membrane and probed.

A further test has as its system TNFα mRNA. Briefly: RT-PCR of TNFα mRNA in rat myocardium after I/R. Conditions: 40 mg/Kg 1 hr before 15 min ischemia and 1 hr reperfusion. The procedure:
FIG. 17 depicts RT-PCR analysis of total RNA obtained from rat myocardium pretreated with glucan (40 mg/Kg) for 1 hr. prior to 15 min. ischemia and 1 hr. reperfusion. TNFα and GAPDH are labeled at right to indicate the position of the corresponding RNA. M is a 100 bp DNA ladder. As indicated, pretreatment with glucan (I15′R1 hr+Glucan) decreases myocardial TNFα mRNA expression after I/R.
as §1
The inventors also investigated whether (1→3)-β-D-glucans regulate TNFα gene expression. […] (1→3)-β-D-glucan down-regulates LPS-induced TNFα mRNA expression in vivo.

Test [1] has as its system rat hearts subjected to ischemia/reperfusion. Briefly: myocardial infarct size after LAD occlusion and reperfusion, TTC staining. Conditions: 40 mg/kg one hour before 45 min LAD occlusion, 4 hr reperfusion; mean±SEM; untreated 48.82±3.03%. The procedure:
as §1
Sprague-Dawley rats (250-300 g) were treated, with (1→3)-β-D-glucans at a concentration of 40 mg/kg one hour before the hearts were subjected to 45 minutes of occlusion of the left anterior descending (LAD) coronary artery, followed by reperfusion for 4 hours. At the completion of the experimental protocol, the heart was removed, rinsed free of blood, stained with 1% Evans Blue, and sectioned into five slices, followed by incubation in triphenyltetrazolium chloride (TTC) solution. Viable myocardium (risk area) was stained with TTC while the necrotic myocardium was pale white. The area of infarction on both sides of each slice was analyzed by an image analyzer (Alpha Imager 2000), corrected for each slice weight and summed for each left ventricle. The infarct areas were expressed as a percentage of risk area as well as a percentage of left ventricle and the risk areas were expressed as a percentage of left ventricle.
Glucan phosphate (40 mg/kg) was administered to rats via intravenous route 5 min. after the rat hearts were subjected to occlusion of the left afterior descending (LAD) coronary artery, followed by 4 hr. reperfusion. Subsequently, the hearts were harvested and the infarct size/area at risk was determined using TTC staining and image analysis as described previously. FIG. 19 illustrates results, with infarct size expressed as percentage of risk area and risk area expressed as percentage of the left ventricle.

Test [2] has as its system cardiac myocyte apoptosis. Briefly: TUNEL assay of cardiac myocyte apoptosis after I/R. Conditions: 40 mg/kg 1 hr before 30 min ischemia, 3 hr reperfusion; untreated I/R hearts 17.17±1.41%. Here is the method:
as §1
The effects of (1→3)-β-D-glucan on apoptosis were investigated using rats treated with (1-3)-β-D-glucan (40 mg/kg) 1 hr. before the. hearts were subjected to 30 min. of ischemia followed by 3 hr. reperfusion. Upon completion of the protocol, the hearts were removed, rinsed free of blood, and perfused with freshly prepared phosphate-buffered 4% formaldehyde. Heart segments distal to the ligation were horizontally sliced into 2 mm sections and fixed with phosphate-buffered 4% formaldehyde at 4° C. overnight. The terminal deoxynucleotidyl transferase-mediated dUTP nick end-labeling (TUNEL) technique (Gavrieli, Y., et al., J. Cell Biol. (1992) 119: 493-501) was used to quantitate the level of apoptosis, using an In Situ Cell Death Detection Kit (Roche Diagnostics) and manufacturer's instructions. Briefly, three slides from each block were evaluated to determine the percentage of TUNEL positive cells. For each slide, four fields were randomly examined using a defined rectangular field area with magnification of 200×. A total of 100 cells were counted in each field. […]

In another test the test system is NF-κB. Briefly: EMSA of nuclear NF-κB binding activity in rat myocardium after I/R. Conditions: 40 mg/Kg one hr before ischemia (I45 or I15R30). The procedure: Rats were pretreated with glucan (40 mg/Kg) for one hr. before being subjected to 45 min. of ischemia (I45), as well as 15 min. ischemia followed by 30 min. reperfusion (I15R30). Nuclear proteins were isolated and analyzed by EMSA. Results are expressed as means±SEM for 5 hearts at each time point. P<0.05 as compared to normal (N).
as §1, §2
NF-κB nuclear binding activity in rat myocardium after in vivo I/R was also determined. […]

For the substance (1→3)-β-D-glucan, the “effect on cytoplasmic IκBα after I/R” value in the test on IκBα was “prevent loss”. Moreover, the “effect on I/R increase in TNFα mRNA levels” value in the test on TNFα mRNA is “significantly inhibited”. Further, in test [1], the “infarct size/area at risk” value worked out at 25.86±2.33%. Also, the “apoptotic cell nuclei (TUNEL positive)” value in test [2] came out at 3.33±0.71%. Besides, in the test on NF-κB, the “effect on I/R induced myocardial NF-κB binding activity” value is recorded as “markedly reduced, but did not completely inhibit”.
